Assay results taken from patent US20250152585A1, “PHARMACEUTICAL COMPOUND” (Duke Street Bio Limited, priority 2022, published 2025).
Where two headings read alike, the source gives them in different places.

How the values were obtained:
[1] = biological target: T1, full length N-terminally FLAG-tagged PARP1 (Homo sapiens, UniProt P09874); experiment: PARP1 biochemical DELFIA assay (auto-PARylation); set-up: recombinant full length human N-terminally FLAG-tagged PARP1
[2] = biological target: T2, N-terminally FLAG-tagged PARP2 (amino acids 1-583) (Homo sapiens, UniProt Q9UGN5); experiment: PARP2 probe displacement HTRF assay; assay type: binding; conditions: binned Kd
T2 construct: N-terminally FLAG-tagged PARP2 (amino acids 1-583)
T2 sequence (Q9UGN5 whole entry, the tested form may be a part): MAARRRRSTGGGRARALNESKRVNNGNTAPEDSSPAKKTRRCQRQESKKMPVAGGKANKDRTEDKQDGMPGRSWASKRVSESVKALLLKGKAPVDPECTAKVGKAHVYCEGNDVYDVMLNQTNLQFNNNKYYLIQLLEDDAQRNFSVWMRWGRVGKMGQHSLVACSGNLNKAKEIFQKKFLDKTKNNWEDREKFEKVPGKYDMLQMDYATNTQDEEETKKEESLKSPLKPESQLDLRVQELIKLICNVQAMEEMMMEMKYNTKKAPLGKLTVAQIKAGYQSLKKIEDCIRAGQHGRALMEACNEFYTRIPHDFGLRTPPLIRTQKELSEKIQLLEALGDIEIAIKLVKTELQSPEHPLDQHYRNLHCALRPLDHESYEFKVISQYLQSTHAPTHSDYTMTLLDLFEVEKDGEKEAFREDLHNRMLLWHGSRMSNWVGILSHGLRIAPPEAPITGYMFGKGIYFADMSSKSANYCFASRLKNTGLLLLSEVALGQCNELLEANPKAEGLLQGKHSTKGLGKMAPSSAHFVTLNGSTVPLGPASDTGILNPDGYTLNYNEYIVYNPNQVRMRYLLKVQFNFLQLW
Method: Data analysis was performed identical as for PARP1.

[3] = biological target: T1, full length N-terminally FLAG-tagged PARP1; experiment: PARP1 probe displacement HTRF assay; conditions: for Selectivity: PARP1 over PARP2, ratio Kd (PARP2)/Kd (PARP1); for Kd: binned Kd
[4] = binned IC50, biochemical auto-PARylation assay
[5] = read-out: PARP1 HTRF, probe displacement HTRF
[6] = binned IC50, PARP1 biochemical DELFIA assay
[7] = read-out: PARP1 HTRF, PARP1 probe displacement HTRF

T1 sequence (P09874 whole entry, the tested form may be a part): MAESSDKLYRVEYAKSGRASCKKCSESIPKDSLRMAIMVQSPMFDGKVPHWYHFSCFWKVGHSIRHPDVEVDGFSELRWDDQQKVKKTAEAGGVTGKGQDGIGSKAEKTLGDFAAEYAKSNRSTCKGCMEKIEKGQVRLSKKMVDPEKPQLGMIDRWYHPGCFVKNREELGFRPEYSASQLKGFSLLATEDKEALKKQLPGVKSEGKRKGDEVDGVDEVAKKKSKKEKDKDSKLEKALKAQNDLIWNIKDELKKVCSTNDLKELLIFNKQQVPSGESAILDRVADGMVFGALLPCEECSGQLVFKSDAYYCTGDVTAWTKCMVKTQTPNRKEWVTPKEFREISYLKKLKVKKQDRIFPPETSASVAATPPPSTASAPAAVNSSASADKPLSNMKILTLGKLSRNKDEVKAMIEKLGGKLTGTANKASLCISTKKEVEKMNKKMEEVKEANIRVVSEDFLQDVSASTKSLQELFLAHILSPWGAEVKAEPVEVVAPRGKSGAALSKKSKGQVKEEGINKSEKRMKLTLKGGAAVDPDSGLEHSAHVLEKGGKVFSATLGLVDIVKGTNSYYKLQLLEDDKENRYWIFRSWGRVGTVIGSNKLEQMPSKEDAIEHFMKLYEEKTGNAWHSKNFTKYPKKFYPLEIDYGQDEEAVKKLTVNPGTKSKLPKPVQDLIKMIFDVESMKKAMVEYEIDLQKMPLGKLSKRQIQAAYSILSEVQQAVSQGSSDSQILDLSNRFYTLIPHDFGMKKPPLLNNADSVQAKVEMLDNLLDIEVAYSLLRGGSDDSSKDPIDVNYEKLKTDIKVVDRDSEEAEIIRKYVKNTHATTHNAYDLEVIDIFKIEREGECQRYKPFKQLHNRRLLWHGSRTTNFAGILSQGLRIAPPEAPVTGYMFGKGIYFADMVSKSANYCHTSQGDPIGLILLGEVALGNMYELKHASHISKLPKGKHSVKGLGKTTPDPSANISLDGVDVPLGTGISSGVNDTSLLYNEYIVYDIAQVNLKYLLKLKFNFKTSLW

`CNC(=O)c1ccc(N2CCC(N3CCC(c4cc5c(c(C(F)(F)F)nn5C)c(=O)[nH]4)C3)CC2)c(F)n1` (single isomer, unassigned) [Compound 407b] was tested, and the IC50 [1, 4] was < 10 nM, the Kd ([2]; probe displacement HTRF) was < 10 nM and the Selectivity ([3]; probe displacement HTRF) was “+ (+ indicates a value of 10 to less than 50)”. The Kd [3, 5] was < 10 nM.
In the case of `CNC(=O)c1ccc(N2CCC(N3CCCC(c4nc5c(c(=O)[nH]4)CCCC5)C3)CC2)cn1` (single isomer, unassigned) [Compound 146b], the IC50 [1, 6] is reported as 10 to 100 nM, the Kd ([2]; PARP2 probe displacement HTRF) is reported as > 10000 nM and the Selectivity ([3]; probe displacement HTRF) is reported as “+++ (+++ indicate a value of at least 100)”. It also gave a Kd [3, 7] of 10 to 100 nM.
`CNC(=O)c1ccc(N2CCC(N3CCC(c4cc5ccccc5c(=O)[nH]4)C3)CC2)s1` (racemic) [Compound 319rac] was tested, and the IC50 [1, 4] was 1000 to 10000 nM, the Kd ([2]; probe displacement HTRF) was 1000 to 10000 nM and the Selectivity ([3]; probe displacement HTRF) was “− (− indicates a value of less than 10)”. For the same compound, the Kd [3, 5] was 1000 to 10000 nM.
In the case of `O=C(NCCF)c1ccc(N2CCC(N3CCCC(c4nc5ccccc5c(=O)[nH]4)C3)CC2)cn1` (single isomer, unassigned) [Compound 110b], the IC50 [1, 6] is reported as 100 to 1000 nM, the Kd ([2]; PARP2 probe displacement HTRF) is reported as 100 to 1000 nM and the Selectivity ([3]; probe displacement HTRF) is reported as “− (− indicates a value of less than 10)”. It also gave a Kd [3, 7] of 10 to 100 nM.
For `CNC(=O)c1ccc(N2CCC(N3CC4(c5nc6ncc(F)cc6c(=O)[nH]5)CC3C4)CC2)cn1` [Compound 368], the IC50 [1, 4] was < 10 nM, the Kd ([2]; probe displacement HTRF) was > 10000 nM and the Kd ([3]; PARP1 HTRF, probe displacement HTRF) was < 10 nM. For the same compound, the Selectivity ([3]; probe displacement HTRF) was “+++ (+++ indicate a value of at least 100)”.
For `CCc1ccc(C2CCN(C3CCN(c4cnc(C(=O)NC5CC5)c(F)c4)CC3)C2)[nH]c1=O` (single isomer, unassigned) [Compound 408b], the IC50 [1, 4] was 10 to 100 nM, the Kd ([2]; probe displacement HTRF) was 1000 to 10000 nM and the Selectivity ([3]; probe displacement HTRF) was “+ (+ indicates a value of 10 to less than 50)”. The Kd [3, 5] was 10 to 100 nM.
With `N#Cc1nc(C(=O)NC2CC2)ccc1N1CCC(N2CCC(c3cc4cccc(F)c4c(=O)[nH]3)C2)CC1` (single isomer, unassigned) [Compound 410b] the IC50 [1, 4] was < 10 nM, the Kd ([2]; probe displacement HTRF) was 100 to 1000 nM and the Selectivity ([3]; probe displacement HTRF) was “+++ (+++ indicate a value of at least 100)”. The Kd [3, 5] was < 10 nM.
`O=C(NCCF)c1ccc(N2CCC(N3CCC(c4nc5ccccc5c(=O)[nH]4)C3)CC2)cn1` (single isomer, unassigned) [Compound 117b] was tested, and the IC50 [1, 6] was < 10 nM, the Kd ([2]; PARP2 probe displacement HTRF) was 100 to 1000 nM and the Selectivity ([3]; probe displacement HTRF) was “+++ (+++ indicate a value of at least 100)”. For the same compound, the Kd [3, 7] was < 10 nM.
With `O=C(NC1CC1)c1ccc(N2CCC(N3CCC(c4cc5ncc(F)cc5c(=O)[nH]4)C3)CC2)cn1` (single isomer, unassigned) [Compound 372a] the IC50 [1, 4] was < 10 nM, the Kd ([2]; probe displacement HTRF) was 100 to 1000 nM and the Selectivity ([3]; probe displacement HTRF) was “+ (+ indicates a value of 10 to less than 50)”. For the same compound, the Kd [3, 5] was < 10 nM.
In the case of `CNC(=O)c1ccc(N2CCC(N3CCC(c4cc5c(F)cncc5c(=O)[nH]4)C3)CC2)cn1` (single isomer, unassigned) [Compound 331b], the IC50 [1, 4] is reported as 10 to 100 nM, the Kd ([2]; probe displacement HTRF) is reported as 1000 to 10000 nM and the Selectivity ([3]; probe displacement HTRF) is reported as “+++ (+++ indicate a value of at least 100)”. It also gave a Kd [3, 5] of 10 to 100 nM.
In the case of `CNC(=O)c1ccc(N2CCC(N3CCC(c4cc5ncc(F)cc5c(=O)[nH]4)C3)CC2)c(F)n1` (single isomer, unassigned) [Compound 324b], the IC50 [1, 4] is reported as < 10 nM, the Kd ([2]; probe displacement HTRF) is reported as 100 to 1000 nM and the Selectivity ([3]; probe displacement HTRF) is reported as “+++ (+++ indicate a value of at least 100)”. The Kd [3, 5] was < 10 nM.
In the case of `CNC(=O)c1csc(N2CCC(N3CCC(c4cc5ccccc5c(=O)[nH]4)C3)CC2)n1` (single isomer, unassigned) [Compound 274a], the IC50 [1, 4] is reported as 100 to 1000 nM, the Kd ([2]; probe displacement HTRF) is reported as 1000 to 10000 nM and the Selectivity ([3]; probe displacement HTRF) is reported as “− (− indicates a value of less than 10)”. For the same compound, the Kd [3, 5] was 100 to 1000 nM.
`CNC(=O)c1ccc(N2CCC(N3CCC(C)(c4nc5ccccc5c(=O)[nH]4)C3)CC2)cn1` (single isomer, unassigned) [Compound 67a] was tested, and the IC50 [1, 6] was 100 to 1000 nM, the Kd ([2]; PARP2 probe displacement HTRF) was 1000 to 10000 nM and the Selectivity ([3]; probe displacement HTRF) was “+ (+ indicates a value of 10 to less than 50)”. It also gave a Kd [3, 7] of 100 to 1000 nM.
`CCc1ccc(C2CCN(C3CCN(c4ccc(C(=O)NC)nc4Cl)CC3)C2)[nH]c1=O` (single isomer, unassigned) [Compound 239a] was tested, and the IC50 [1, 4] was < 10 nM, the Kd ([2]; probe displacement HTRF) was > 10000 nM and the Selectivity ([3]; probe displacement HTRF) was “+++ (+++ indicate a value of at least 100)”. The Kd [3, 5] was < 10 nM.
